Source: US7022855B2, “Halogen-substituted quinoline derivatives and ectoparasite control agent” (Meiji Seika Kaisha, Ltd., priority 2001, dated 2006)

Key:
Assay type in all cases: in vivo
[1] = tested on: Haemaphysalis longicornis; test: Tickcidal effect against Haemaphysalis longicornis (dry film on glass Schale); conditions: larva ticks, 24 hr, 25° C., relative humidity 100%; for Death rate, %: 10 ppm; for pest or weed control at 10 ppm: Haemaphysalis longicornis, read-out: Death rate, %
Description: A test compound solution (1.0 ml) prepared by dissolving a test compound in acetone and diluting the solution with acetone to 10 ppm was dropped on a glass Schale having a diameter of 9 cm. Acetone was evaporated at room temperature to form a dry film of the test compound at the bottom of the Schale. Larva ticks of Haemaphysalis longicornis (40 to 100 head) were released in the Petri dish, and the Schale was then lidded and was hermetically sealed by covering with a polyethylene sheet. Rearing was carried out at a temperature of 25° C. and a relative humidity of 100% under fully darkened conditions. The number of ticks, which have fallen on their side, was counted 24 hr after the initiation of rearing. The death rate (%) was determined from the number of dead ticks. The test was repeated twice.

Dermanyssus gallinae = test: Miticidal effect against Dermanyssus gallinae (treated Pasteur pipette, contact test); conditions: 50 ppm in acetone, sucking adult mites, 24 hr after treatment, 25° C.; for pest or weed control at 50 ppm: Dermanyssus gallinae, read-out: Death rate, %
Source text: (§1) The tip of a Pasteur pipette was sealed with Parafilm, and a sample compound diluted with acetone to 50 ppm was poured into the pipette from its top. The Parafilm in the tip of the pipette was removed one min after the pouring to discharge the test solution, and the pipette was air dried. Thereafter, an absorbent cotton was inserted into the upper end of the pipette, and 10 sucking adult mites of Dermanyssus gallinae were released in the pipette. The tip of the pipette was sealed with Hematoseal, and the pipette was then placed in a desiccator containing a saturated ammonium sulfate solution in its bottom and was stored under fully darkened conditions at 25° C. The mites were observed under a stereomicroscope 24 hr after the treatment to judge whether the mites were dead or survived, followed by determination of the death rate of mites (%).

Ctenocephalides felis = test: Insecticidal effect against Ctenocephalides felis (dry film in glass tube); conditions: non-sucking adult fleas, 24 hr, 25° C., relative humidity 90%
Description: Test compound solutions (0.5 ml) prepared by dissolving a test compound in acetone and diluting the solutions with acetone to designated concentrations were placed respectively in glass tubes (inner diameter 2.6 cm, height 12 cm), and acetone was evaporated at room temperature to form a dry film of the test compound at the bottom of each glass tube. Non-sucking adult fleas (10 heads) of Ctenocephalides felis were released in the glass tubes. The glass tubes were then lidded. Whether the fleas were dead or survived was judged 24 hr after the initiation of rearing. The death rate (%) was determined from the number of dead fleas. Rearing was carried out at a temperature of 25° C. and a relative humidity of 90% under fully darkened conditions. The test was repeated three times.

Ornithonyssus sylviarum = test: Miticidal effect against Ornithonyssus sylviarum (treated Pasteur pipette, contact test); conditions: 50 ppm in acetone, sucking adult mites, 24 hr after treatment, 25° C., read-out: Death rate, %
Source text: as §1, with “Ornithonyssus sylviarum” for “Dermanyssus gallinae”, “rate” for “rate of mites”

Molecule	pest or weed control at 50 ppm (Ornithonyssus sylviarum)	pest or weed control at 50 ppm (Dermanyssus gallinae)	further results
2,3-dimethyl-4-propargloxycarbonyloxy-5,6-difluoroquinoline [Compound 50]	–	–	Death rate, % [1]: 100%; Death rate, % (Dermanyssus gallinae): 95%
CCc1nc2cc(F)c(F)cc2c(OC(=O)C2CC2)c1C [Compound 1, 2-ethyl-3-methyl-4-cyclopropanecarbonyloxy-6,7-difluoroquinoline]	80%	–	Death rate, % (Ctenocephalides felis; 20 ppm): 100%
CCc1nc2ccc(F)c(F)c2c(OC(=O)C2CC2)c1C [Compound 2, 2-ethyl-3-methyl-4-cyclopropanecarbonyloxy-5,6-difluoroquinoline]	100%	100%	Death rate, % (Ctenocephalides felis; 4 ppm): 97%; Death rate, % (Ctenocephalides felis; 20 ppm): 100%; pest or weed control at 10 ppm [1]: 100%
CCc1nc2ccc(F)c(F)c2c(OC(C)=O)c1C [Compound 12, 2-ethyl-3-methyl-4-acetyloxy-5,6-difluoroquinoline]	100%	95%	–
CCCCOC(=O)Oc1c(C)c(CC)nc2ccc(F)c(F)c12 [Compound 13, 2-ethyl-3-methyl-4-butoxycarbonyloxy-5,6-difluoroquinoline]	–	85%	–
CCc1nc2ccc(F)c(F)c2c(OC(=O)OC(C)C)c1C [Compound 14, 2-ethyl-3-methyl-4-isopropoxycarbonyloxy-5,6-difluoroquinoline]	100%	–	–
Cc1nc2ccc(F)c(F)c2c(OC(=O)C2CC2)c1C [Compound 16, 2,3-dimethyl-4-cyclopropanecarbonyloxy-5,6-difluoroquinoline]	80%	100%	pest or weed control at 10 ppm [1]: 100%
CCc1nc2ccc(F)c(Cl)c2c(OC(C)=O)c1C [Compound 19, 2-ethyl-3-methyl-4-acetyloxy-5-chloro-6-fluoroquinoline]	100%	–	Death rate, % (Ctenocephalides felis; 4 ppm): 100%
CCc1nc2ccc(F)c(Cl)c2c(OC(=O)C2CC2)c1C [Compound 21, 2-ethyl-3-methyl-4-cyclopropanecarbonyloxy-5-chloro-6-fluoroquinoline]	100%	–	–
CCc1nc2ccc(F)c(F)c2c(OC(=O)OC)c1C [Compound 24, 2-ethyl-3-methyl-4-methoxycarbonyloxy-5,6-difluoroquinoline]	100%	100%	Death rate, % (Ctenocephalides felis; 4 ppm): 84%; Death rate, % (Ctenocephalides felis; 20 ppm): 100%; pest or weed control at 10 ppm [1]: 100%
COC(=O)Oc1c(C)c(C)nc2ccc(F)c(F)c12 [Compound 25, 2,3-dimethyl-4-methoxycarbonyl-oxy-5,6-difluoroquinoline]	100%	100%	pest or weed control at 10 ppm [1]: 100%
CCC(=O)Oc1c(C)c(CC)nc2ccc(F)c(F)c12 [Compound 30, 2-ethyl-3-methyl-4-propionyloxy-5,6-difluoroqinoline]	–	–	Death rate, % [1]: 100%; Death rate, % (Dermanyssus gallinae): 100%
CCOC(=O)Oc1c(C)c(CC)nc2ccc(F)c(F)c12 [Compound 33, 2-ethyl-3-methyl-4-ethoxycarbonyl-oxy-5,6-difluoroquinoline]	–	100%	–
CCc1nc2ccc(F)c(F)c2c(OC(=O)SC)c1C [Compound 39, 2-ethyl-3-methyl-4-methanethiolcarbonyloxy-5,6-difluoroquinoline]	–	–	Death rate, % (Ctenocephalides felis; 4 ppm): 80%; Death rate, % [1]: 100%; Death rate, % (Dermanyssus gallinae): 100%
C#CCOC(=O)Oc1c(C)c(CC)nc2ccc(F)c(F)c12 [Compound 41, 2-ethyl-3-methyl-4-propargyloxycarbonyloxy-5,6-difluoroquinoline]	–	100%	pest or weed control at 10 ppm [1]: 100%
CC(=O)Oc1c(C)c(C)nc2ccc(F)c(F)c12 [Compound 44, 2,3-dimethyl-4-acetoxy-5,6-difluoro-quinoline]	–	100%	pest or weed control at 10 ppm [1]: 100%
CCOC(=O)Oc1c(C)c(C)nc2ccc(F)c(F)c12 [Compound 45, 2,3-dimethyl-4-ethyloxycarbonyloxy-5,6-difluoroquinoline]	–	100%	–
CSC(=O)Oc1c(C)c(C)nc2ccc(F)c(F)c12 [Compound 46, 2,3-dimethyl-4-methanethiolcarbonyloxy-5,6-difluoro-quinoline]	–	–	Death rate, % [1]: 100%; Death rate, % (Dermanyssus gallinae): 100%
CCc1nc2ccc(F)c(F)c2c(OC(=O)C(C)C)c1C [Compound 48, 2-ethyl-3-methyl-4-isobutyryloxy-5,6-difluoroquinoline]	–	100%	–
C=COC(=O)Oc1c(C)c(C)nc2ccc(F)c(F)c12 [Compound 51, 2,3-dimethyl-4-vinyloxycarbonyloxy-5,6-difluoroquinoline]	–	90%	–
C#CCCOC(=O)Oc1c(C)c(C)nc2ccc(F)c(F)c12 [Compound 52, 2,3-dimethyl-4-(3-butynyl)oxycarbonyloxy-5,6-difluoroquinoline]	–	100%	Death rate, % (Ctenocephalides felis; 4 ppm): 70%; pest or weed control at 10 ppm [1]: 100%
Cc1nc2ccc(F)c(F)c2c(OC(=O)/C=C/Cl)c1C [Compound 53, 2,3-dimethyl-4-(3-transchloroacryloyloxy)-5,6-difluoroquinoline]	–	100%	–
Cc1nc2ccc(F)c(F)c2c(OC(=O)/C=C\Cl)c1C [Compound 54, 2,3-dimethyl-4-(3-cischloroacryloyloxy)-5,6-difluoroquinoline]	–	100%	–
CCCSC(=O)Oc1c(C)c(CC)nc2ccc(F)c(F)c12 [Compound 55, 2-ethyl-3-methyl-4-propanethiolcarbonyloxy-5,6-difluoroquinoline]	–	–	Death rate, % (Dermanyssus gallinae): 100%
C#CCCOC(=O)Oc1c(C)c(CC)nc2ccc(F)c(F)c12 [Compound 56, 2-ethyl-3-methyl-4-(3-butynyl)oxycarbonyloxy-5,6-difluoroquinoline]	–	95%	pest or weed control at 10 ppm [1]: 100%
C=CCOC(=O)Oc1c(C)c(C)nc2ccc(F)c(F)c12 [Compound 57, 2,3-dimethyl-4-allyloxycarbonyloxy-5,6-difluoroquinoline]	–	100%	–
C#CCCCC(=O)Oc1c(C)c(C)nc2ccc(F)c(F)c12 [Compound 58, 2,3-dimethyl-4-(5-hexynoyloxy)-5,6-difluoroquinoline]	–	80%	–
COC(=O)Oc1c(C)c(C)nc2ccc(F)c(C(F)(F)F)c12 [Compound 62, 2,3-dimethyl-4-methoxycarbonyloxy-5-trifluoromethyl-6-fluoroquinoline]	–	100%	–
CC(=O)Oc1c(C)c(C)nc2ccc(Cl)c(Cl)c12 [Compound 65, 2,3-dimethyl-4-acetoxy-5,6-dichloro-quinoline]	–	80%	–
COC(=O)Oc1c(C)c(C)nc2ccc(Cl)c(Cl)c12 [Compound 67, 2,3-dimethyl-4-methoxycarbonyloxy-5,6-dichloroquinoline]	–	100%	–
